Laboratory results from the supplement of paper PMC8253809.

What was measured:
SUDIPGXIX [1] = diffuse intrinsic pontine glioma line; assay: EC50 (inflection of fitted growth-inhibition curve) (log10 M)
Summary of the method: (§1)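 Treatment used a pin tool and a 10-point threefold dilution series, mean top concentration 35 μM, run in triplicate on patient-derived pHGG/DIPG cell lines and astrocyte controls in 1% Geltrex-coated 384-well plates. Plates were kept at 37 °C, 5% CO2 for 7 days (iAstro: 3 days). Log2-transformed CellTiter-Glo luminescence was scaled per plate to % activity between negative (solvent) and positive control wells and pooled before fitting. EC50 and maximal response (yFin) came from the three- or four-parameter log-logistic fit chosen by lowest AICc.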

SUDIPGXXI = diffuse intrinsic pontine glioma line; assay: maximal growth inhibition (yFin) relative to DMSO / staurosporine; higher = more efficacious
Summary of the method: as §1

HABS = astrocyte control; assay: as above
Summary of the method: as §1

SUDIPGIV = diffuse intrinsic pontine glioma line; assay: as above
Summary of the method: as §1

HGGX6 = H3.3 G34R paediatric high-grade glioma line; assay: as above
Summary of the method: as §1

SUDIPGXIX [2] = assay: as above
Summary of the method: as §1

DIPGX29 = H3.3 K27M diffuse intrinsic pontine glioma line; assay: as above
Summary of the method: as §1

DIPGX9 = diffuse intrinsic pontine glioma line; assay: as above
Summary of the method: as §1

iAstro = astrocyte control; assay: as above
Summary of the method: as §1

HGGX39 = paediatric high-grade glioma line; assay: as above
Summary of the method: as §1

SUDIPGXIII = diffuse intrinsic pontine glioma line; assay: as above
Summary of the method: as §1

SUDIPGVI = diffuse intrinsic pontine glioma line; assay: as above
Summary of the method: as §1

DIPGX37 = H3.3 K27M diffuse intrinsic pontine glioma line; assay: as above
Summary of the method: as §1

DIPGX7 = H3.3 K27M diffuse intrinsic pontine glioma line; assay: as above
Summary of the method: as §1

HGGX42 = H3.3 G34R paediatric high-grade glioma line; assay: as above
Summary of the method: as §1

HGGX2 = paediatric high-grade glioma line; assay: as above
Summary of the method: as §1

SUDIPGXVII = diffuse intrinsic pontine glioma line; assay: as above
Summary of the method: as §1

## NC1CCC(Nc2cc(-c3cccc(NCc4cccc(F)c4)n3)c(Cl)cn2)CC1 (centres undefined) [CDK9-IN-2]
SUDIPGXIX [1]
  EC50 (log10 M): -6.93
SUDIPGXXI
  maximal growth inhibition: 95.9%
HABS
  maximal growth inhibition: 98.5%
SUDIPGIV
  maximal growth inhibition: 88.1%
HGGX6
  maximal growth inhibition: 67.1%
SUDIPGXIX [2]
  maximal growth inhibition: 86.9%
DIPGX29
  maximal growth inhibition: 71.8%
DIPGX9
  maximal growth inhibition: 88.7%
iAstro
  maximal growth inhibition: 85.7%
HGGX39
  maximal growth inhibition: 99.7%
SUDIPGXIII
  maximal growth inhibition: 94.9%
SUDIPGVI
  maximal growth inhibition: 71.3%
DIPGX37
  maximal growth inhibition: 77.5%
DIPGX7
  maximal growth inhibition: 90.4%
HGGX42
  maximal growth inhibition: 76.7%
HGGX2
  maximal growth inhibition: 95.4%
SUDIPGXVII
  maximal growth inhibition: 87%

## CCNC(=O)c1noc(-c2cc(C(C)C)c(O)cc2O)c1-c1ccc(CN2CCOCC2)cc1 [NVP-AUY922]
SUDIPGXIX [1]
  EC50 (log10 M): -7.59
SUDIPGXXI
  maximal growth inhibition: 115%
HABS
  maximal growth inhibition: 86.9%
SUDIPGIV
  maximal growth inhibition: 55.9%
HGGX6
  maximal growth inhibition: 29.6%
SUDIPGXIX [2]
  maximal growth inhibition: 76.3%
DIPGX29
  maximal growth inhibition: 80.4%
DIPGX9
  maximal growth inhibition: 84.4%
iAstro
  maximal growth inhibition: 51%
HGGX39
  maximal growth inhibition: 80.3%
SUDIPGXIII
  maximal growth inhibition: 61.3%
SUDIPGVI
  maximal growth inhibition: 35.2%
DIPGX37
  maximal growth inhibition: 82.2%
DIPGX7
  maximal growth inhibition: 48.5%
HGGX42
  maximal growth inhibition: 34.4%
HGGX2
  maximal growth inhibition: 49.9%
SUDIPGXVII
  maximal growth inhibition: 63.9%

## CCCCc1oc2ccc(NS(C)(=O)=O)cc2c1C(=O)c1ccc(OCCCN(CCCC)CCCC)cc1 [DRONEDARONE]
SUDIPGXIX [1]
  EC50 (log10 M): -5.12
SUDIPGXXI
  maximal growth inhibition: 127%
HABS
  maximal growth inhibition: 119%
SUDIPGIV
  maximal growth inhibition: 122%
HGGX6
  maximal growth inhibition: 93.4%
SUDIPGXIX [2]
  maximal growth inhibition: 123%
DIPGX29
  maximal growth inhibition: 104%
DIPGX9
  maximal growth inhibition: 123%
iAstro
  maximal growth inhibition: 104%
HGGX39
  maximal growth inhibition: 106%
SUDIPGXIII
  maximal growth inhibition: 117%
SUDIPGVI
  maximal growth inhibition: 121%
DIPGX37
  maximal growth inhibition: 99.7%
DIPGX7
  maximal growth inhibition: 120%
HGGX42
  maximal growth inhibition: 119%
HGGX2
  maximal growth inhibition: 116%
SUDIPGXVII
  maximal growth inhibition: 122%

## CN1CCCN(C(=O)c2cccc(-c3ccc(/C=C4/C(=O)Nc5ccc(Cl)cc54)o3)c2)CC1 [CX-6258]
SUDIPGXIX [1]
  EC50 (log10 M): -5.48
SUDIPGXXI
  maximal growth inhibition: 106%
HABS
  maximal growth inhibition: 112%
SUDIPGIV
  maximal growth inhibition: 107%
HGGX6
  maximal growth inhibition: 106%
SUDIPGXIX [2]
  maximal growth inhibition: 110%
DIPGX29
  maximal growth inhibition: 112%
DIPGX9
  maximal growth inhibition: 108%
iAstro
  maximal growth inhibition: 102%
HGGX39
  maximal growth inhibition: 110%
SUDIPGXIII
  maximal growth inhibition: 104%
SUDIPGVI
  maximal growth inhibition: 108%
DIPGX37
  maximal growth inhibition: 109%
DIPGX7
  maximal growth inhibition: 110%
HGGX42
  maximal growth inhibition: 106%
HGGX2
  maximal growth inhibition: 108%
SUDIPGXVII
  maximal growth inhibition: 110%

## CC(C)c1c2cc(-c3ccnc(NC4CCC(NC5CCOCC5)CC4)n3)ccc2nn1C (centres undefined)
SUDIPGXIX [1]
  EC50 (log10 M): -7.04
SUDIPGXXI
  maximal growth inhibition: 99.9%
HABS
  maximal growth inhibition: 44.3%
SUDIPGIV
  maximal growth inhibition: 90.4%
HGGX6
  maximal growth inhibition: 78%
SUDIPGXIX [2]
  maximal growth inhibition: 91.6%
DIPGX29
  maximal growth inhibition: 84.4%
DIPGX9
  maximal growth inhibition: 89.5%
iAstro
  maximal growth inhibition: 26.6%
HGGX39
  maximal growth inhibition: 83.2%
SUDIPGXIII
  maximal growth inhibition: 89.3%
SUDIPGVI
  maximal growth inhibition: 84%
DIPGX37
  maximal growth inhibition: 81.2%
DIPGX7
  maximal growth inhibition: 93.3%
HGGX42
  maximal growth inhibition: 82%
HGGX2
  maximal growth inhibition: 75.2%
SUDIPGXVII
  maximal growth inhibition: 89.7%

## Cc1ccc(C(=O)Nc2ccc(CN3CCN(C)CC3)c(C(F)(F)F)c2)cc1C#Cc1cnc2cccnn12 [PONATINIB]
SUDIPGXIX [1]
  EC50 (log10 M): -5.29
SUDIPGXXI
  maximal growth inhibition: 97.2%
HABS
  maximal growth inhibition: 103%
SUDIPGIV
  maximal growth inhibition: 100%
HGGX6
  maximal growth inhibition: 97.4%
SUDIPGXIX [2]
  maximal growth inhibition: 99.8%
DIPGX29
  maximal growth inhibition: 104%
DIPGX9
  maximal growth inhibition: 94.2%
iAstro
  maximal growth inhibition: 95%
HGGX39
  maximal growth inhibition: 99.3%
SUDIPGXIII
  maximal growth inhibition: 96%
SUDIPGVI
  maximal growth inhibition: 97.8%
DIPGX37
  maximal growth inhibition: 101%
DIPGX7
  maximal growth inhibition: 101%
HGGX42
  maximal growth inhibition: 99%
HGGX2
  maximal growth inhibition: 99.6%
SUDIPGXVII
  maximal growth inhibition: 101%

## CC(=O)c1ccc2c(c1)c1cc(C(C)=O)ccc1n2CCNC(C)C [CBL-0137]
SUDIPGXIX [1]
  EC50 (log10 M): -6.28
SUDIPGXXI
  maximal growth inhibition: 113%
HABS
  maximal growth inhibition: 74.4%
SUDIPGIV
  maximal growth inhibition: 96.8%
HGGX6
  maximal growth inhibition: 88.7%
SUDIPGXIX [2]
  maximal growth inhibition: 98%
DIPGX29
  maximal growth inhibition: 94.2%
DIPGX9
  maximal growth inhibition: 106%
iAstro
  maximal growth inhibition: 23.8%
HGGX39
  maximal growth inhibition: 104%
SUDIPGXIII
  maximal growth inhibition: 96.5%
SUDIPGVI
  maximal growth inhibition: 92.3%
DIPGX37
  maximal growth inhibition: 101%
DIPGX7
  maximal growth inhibition: 99.2%
HGGX42
  maximal growth inhibition: 91.8%
HGGX2
  maximal growth inhibition: 83.4%
SUDIPGXVII
  maximal growth inhibition: 97.5%
